Measurements published in patent US20260250318A1, “COMPOSITIONS AND METHODS FOR CROSSING THE BLOOD BRAIN BARRIER” (VOYAGER THERAPEUTICS, INC., priority 2022, published 2026).

What was measured:
[1] = test system: brain; assay: Matured TTM-001 and TTM-002 variants, NGS enrichment in mouse brain; assay type: in vivo, mice; settings: relative to AAV9 control
[2] = test system: brains, heart, liver, muscle, and DRG of the NHPs; assay: Maturation of TTM-001 and TTM-002 capsids, NGS enrichment in NHP tissues; assay type: in vivo; settings: relative to AAV9 control
Summary of the method: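 Variants carry mutations within and flanking the loop IV peptide insert: positions 450–466 were triplet-randomized, while positions 449–466 received low-frequency point mutations. The combined pool went into two NHPs, and each peptide was scored by NGS enrichment ratio against AAV9.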

[3] = NGS fold-enrichment of matured AAV capsid variants, NHP brain, RNA
[4] = NGS fold-enrichment, mouse brain
[5] = NGS fold-enrichment of RNA, NHP brain
[6] = NGS fold-enrichment, NHP liver DNA
[7] = NGS fold-enrichment, NHP liver RNA
[8] = NGS fold-enrichment, NHP muscle
[9] = NGS fold-enrichment, brain of mice
[10] = NGS fold-enrichment, DRG of NHPs
[11] = NGS fold-enrichment, RNA, brain of NHPs
[12] = NGS fold-enrichment, heart of NHPs
[13] = NGS fold-enrichment, liver DNA of NHPs
[14] = NGS fold-enrichment, liver RNA of NHPs
[15] = NGS fold-enrichment, muscle of NHPs

Sequence | Fold Enrichment relative to AAV9, Brain (Mouse) [1, 4] | Fold Enrichment relative to AAV9, Brain (NHP) [2, 5] | Fold Enrichment relative to AAV9, DRG (NHP) ([2]; NGS fold-enrichment, NHP DRG) | Fold Enrichment relative to AAV9, Heart (NHP) ([2]; NGS fold-enrichment, NHP heart) | Fold Enrichment relative to AAV9, Liver DNA (NHP) [2, 6] | Fold Enrichment relative to AAV9, Liver RNA (NHP) [2, 7] | Fold Enrichment relative to AAV9, Muscle (NHP) [2, 8] | Fold Enrichment relative to AAV9, Brain (Mouse) [1, 9] | Fold Enrichment relative to AAV9, DRG (NHP) [2, 10] | Fold Enrichment relative to AAV9, Brain (NHP) [2, 11] | Fold Enrichment relative to AAV9, Heart (NHP) [2, 12] | Fold Enrichment relative to AAV9, Liver DNA (NHP) [2, 13] | Fold Enrichment relative to AAV9, Liver RNA (NHP) [2, 14] | Fold Enrichment relative to AAV9, Muscle (NHP) [2, 15] | other results
KTSNGSGSPHSKAQNYQT |  |  |  |  |  |  |  |  |  |  |  |  |  |  | Fold Enrichment relative to AAV9, Brain (Mouse) ([1]; mouse brain): 63.681 fold; Fold Enrichment relative to AAV9, Brain (NHP) [2, 3]: 57.894 fold; Fold Enrichment relative to AAV9, DRG (NHP) ([2]; NHP DRG): 0.000 fold; Fold Enrichment relative to AAV9, Heart (NHP) ([2]; NHP heart): 0.082 fold; Fold Enrichment relative to AAV9, Liver DNA (NHP) ([2]; NHP liver, DNA): 0.110 fold; Fold Enrichment relative to AAV9, Liver RNA (NHP) ([2]; NHP liver, RNA): 0.000 fold; Fold Enrichment relative to AAV9, Muscle (NHP) ([2]; NHP muscle): 0.000 fold
KTSNGYDSPHKSGQKQQT | 8.813 fold | 77.001 fold | 0.032 fold | 0.286 fold | 0.016 fold | 0.000 fold | 0.000 fold |  |  |  |  |  |  |  | 
KTSSGSGSPHSKAQYQQT | 58.143 fold | 87.304 fold | 0.000 fold | 0.000 fold | 0.299 fold | 0.000 fold | 0.000 fold | 58.143 fold | 0.000 fold | 87.304 fold | 0.000 fold | 0.299 fold | 0.000 fold | 0.000 fold | 
KTSYGNGSPHSKAQNQQT | 105.894 fold | 105.937 fold | 0.000 fold | 0.000 fold | 0.114 fold | 0.000 fold | 0.000 fold | 105.894 fold | 0.000 fold | 105.937 fold | 0.000 fold | 0.114 fold | 0.000 fold | 0.000 fold | 
KTTNGHDSPHKSGQNLLT | 15.192 fold | 77.738 fold | 0.130 fold | 0.064 fold | 0.326 fold | 0.424 fold | 0.185 fold |  |  |  |  |  |  |  | 
KTTNGHDSPHKSGQNQQG | 10.555 fold | 85.113 fold | 0.000 fold | 0.107 fold | 0.017 fold | 0.000 fold | 0.000 fold |  |  |  |  |  |  |  | 
KTTNGHDSPHKSGQTQLT | 17.885 fold | 115.637 fold | 0.000 fold | 0.283 fold | 0.321 fold | 0.052 fold | 0.000 fold |  |  |  |  |  |  |  | 
KTTNGQDSPHKSGQNQQS | 7.592 fold | 92.419 fold | 0.000 fold | 0.037 fold | 0.079 fold | 0.000 fold | 0.043 fold |  |  |  |  |  |  |  | 
KTTNGSGSPHSKAHNQLT |  |  |  |  |  |  |  | 65.505 fold | 0.000 fold | 69.062 fold | 0.000 fold | 0.000 fold | 0.708 fold | 0.000 fold | 
KTTNGSGSPHSKAQYQHT |  |  |  |  |  |  |  | 83.337 fold | 0.000 fold | 67.325 fold | 0.000 fold | 0.080 fold | 1.378 fold | 0.000 fold | 
KTVDGHDSPHKSGQKQQT | 7.200 fold | 78.802 fold | 0.000 fold | 0.069 fold | 0.342 fold | 0.157 fold | 0.000 fold |  |  |  |  |  |  |  | 
KTVHGNGSPHSKAQNQQT | 97.003 fold | 90.073 fold | 0.000 fold | 0.000 fold | 0.304 fold | 0.000 fold | 0.000 fold | 97.003 fold | 0.000 fold | 90.073 fold | 0.000 fold | 0.304 fold | 0.000 fold | 0.000 fold | 
KTVHGSGSPHSKAQSQQT |  |  |  |  |  |  |  |  |  |  |  |  |  |  | Fold Enrichment relative to AAV9, Brain (Mouse) ([1]; mouse brain): 54.185 fold; Fold Enrichment relative to AAV9, Brain (NHP) [2, 3]: 51.057 fold; Fold Enrichment relative to AAV9, DRG (NHP) ([2]; NHP DRG): 0.000 fold; Fold Enrichment relative to AAV9, Heart (NHP) ([2]; NHP heart): 0.000 fold; Fold Enrichment relative to AAV9, Liver DNA (NHP) ([2]; NHP liver, DNA): 0.146 fold; Fold Enrichment relative to AAV9, Liver RNA (NHP) ([2]; NHP liver, RNA): 0.143 fold; Fold Enrichment relative to AAV9, Muscle (NHP) ([2]; NHP muscle): 0.000 fold
KTVIGSGSPHSKALNQQT |  |  |  |  |  |  |  | 60.369 fold | 0.000 fold | 62.358 fold | 0.310 fold | 0.245 fold | 0.062 fold | 0.000 fold | 
KTVIGSGSPHSKSQNQQT |  |  |  |  |  |  |  |  |  |  |  |  |  |  | Fold Enrichment relative to AAV9, Brain (Mouse) ([1]; mouse brain): 69.121 fold; Fold Enrichment relative to AAV9, Brain (NHP) [2, 3]: 54.603 fold; Fold Enrichment relative to AAV9, DRG (NHP) ([2]; NHP DRG): 0.000 fold; Fold Enrichment relative to AAV9, Heart (NHP) ([2]; NHP heart): 0.000 fold; Fold Enrichment relative to AAV9, Liver DNA (NHP) ([2]; NHP liver, DNA): 0.106 fold; Fold Enrichment relative to AAV9, Liver RNA (NHP) ([2]; NHP liver, RNA): 0.000 fold; Fold Enrichment relative to AAV9, Muscle (NHP) ([2]; NHP muscle): 0.000 fold
KTVKDSGSPHSKAQNQQT |  |  |  |  |  |  |  | 87.334 fold | 0.000 fold | 60.216 fold | 0.019 fold | 0.251 fold | 0.443 fold | 0.000 fold | 
KTVKGSGSPHSKAQDQQT |  |  |  |  |  |  |  | 58.114 fold | 0.000 fold | 61.175 fold | 0.041 fold | 0.090 fold | 0.432 fold | 0.000 fold | 
KTVNAHDSPHKSGQNQLT | 29.254 fold | 79.137 fold | 0.000 fold | 0.233 fold | 0.045 fold | 0.753 fold | 0.178 fold |  |  |  |  |  |  |  | 
KTVNASGSPHSKAQNQLT |  |  |  |  |  |  |  |  |  |  |  |  |  |  | Fold Enrichment relative to AAV9, Brain (Mouse) ([1]; mouse brain): 99.559 fold; Fold Enrichment relative to AAV9, Brain (NHP) [2, 3]: 51.249 fold; Fold Enrichment relative to AAV9, DRG (NHP) ([2]; NHP DRG): 0.000 fold; Fold Enrichment relative to AAV9, Heart (NHP) ([2]; NHP heart): 0.000 fold; Fold Enrichment relative to AAV9, Liver DNA (NHP) ([2]; NHP liver, DNA): 0.268 fold; Fold Enrichment relative to AAV9, Liver RNA (NHP) ([2]; NHP liver, RNA): 0.000 fold; Fold Enrichment relative to AAV9, Muscle (NHP) ([2]; NHP muscle): 0.000 fold
KTVNGGGSPHSKAQHQQT |  |  |  |  |  |  |  |  |  |  |  |  |  |  | Fold Enrichment relative to AAV9, Brain (Mouse) ([1]; mouse brain): 138.544 fold; Fold Enrichment relative to AAV9, Brain (NHP) [2, 3]: 58.602 fold; Fold Enrichment relative to AAV9, DRG (NHP) ([2]; NHP DRG): 0.729 fold; Fold Enrichment relative to AAV9, Heart (NHP) ([2]; NHP heart): 0.000 fold; Fold Enrichment relative to AAV9, Liver DNA (NHP) ([2]; NHP liver, DNA): 0.043 fold; Fold Enrichment relative to AAV9, Liver RNA (NHP) ([2]; NHP liver, RNA): 0.000 fold; Fold Enrichment relative to AAV9, Muscle (NHP) ([2]; NHP muscle): 0.000 fold
KTVNGGGSPHSKAQNHQT |  |  |  |  |  |  |  |  |  |  |  |  |  |  | Fold Enrichment relative to AAV9, Brain (Mouse) ([1]; mouse brain): 67.188 fold; Fold Enrichment relative to AAV9, Brain (NHP) [2, 3]: 54.246 fold; Fold Enrichment relative to AAV9, DRG (NHP) ([2]; NHP DRG): 0.375 fold; Fold Enrichment relative to AAV9, Heart (NHP) ([2]; NHP heart): 0.024 fold; Fold Enrichment relative to AAV9, Liver DNA (NHP) ([2]; NHP liver, DNA): 0.146 fold; Fold Enrichment relative to AAV9, Liver RNA (NHP) ([2]; NHP liver, RNA): 0.000 fold; Fold Enrichment relative to AAV9, Muscle (NHP) ([2]; NHP muscle): 0.000 fold
